Data: ChEMBL document CHEMBL2375311, “Cytotoxic 3,4,5-trimethoxychalcones as mitotic arresters and cell migration inhibitors” (Eur J Med Chem, 2013)
Active and inactive are the calls of the source. No cut-off for these calls is given here.

How the values were obtained:
L1210 = assay: Cytotoxicity against mouse L1210 cells after 24 hrs by MTT assay; type: functional, cell-based; settings: L1210, 24 h
Jurkat = assay: Cytotoxicity against human Jurkat cells after 48 hrs by MTT assay; type: functional, cell-based
PBMC = assay: Cytotoxicity against human PBMC cells after 24 hrs by MTT assay; type: cell-based
HeLa [1] = assay: Antimitotic activity in human HeLa cells assessed as chromatin condensation after 24 hrs by Hoechst 33342 staining; type: functional; settings: read-out: MEC
[2] = Inhibition of bovine brain tubulin assembly after 20 mins by spectrophotometric analysis; parameters: species or system Bos taurus
HeLa [3] = assay: Antimitotic activity in human HeLa cells assessed as cell density loss after 24 hrs by Hoechst 33342 staining; type: functional, cell-based
HeLa [4] = assay: Antimitotic activity in human HeLa cells assessed as tubulin intensity after 24 hrs by Hoechst 33342 staining; type: functional; settings: read-out: MEC
HeLa [5] = assay: Antimitotic activity in human HeLa cells assessed as increase in phosphohistone H3 level after 24 hrs by Hoechst 33342 staining; type: functional
REH = assay: Cytotoxicity against human REH cells after 48 hrs by MTT assay; type: functional, cell-based
HeLa [6] = assay: Antimitotic activity in human HeLa cells assessed as tubulin staining intensity at 1 nM after 24 hrs by Hoechst 33342 staining; type: functional, cell-based
HUVEC = assay: Cytotoxicity against human HUVEC cells after 24 hrs by MTT assay; type: cell-based
HeLa [7] = assay: Antimitotic activity in human HeLa cells assessed as tubulin staining intensity at 5 nM after 24 hrs by Hoechst 33342 staining; type: functional, cell-based
NIH3T3 = assay: Cytotoxicity against mouse NIH/3T3 cells after 24 hrs by MTT assay; type: cell-based; settings: NIH3T3, 24 h
MDA-MB-231 [8] = assay: Antimigratory activity against human MDA-MB-231 cells after 6 hrs by Boyden chamber migration assay; type: functional, cell-based; settings: MDA-MB-231, 6 h
MDA-MB-231 [9] = assay: Antimigratory activity against human MDA-MB-231 cells at 1 uM after 22 hrs by scratch wound healing assay; type: functional
HeLa [10] = assay: Cell cycle arrest in human HeLa cells assessed as disorganized microtubules at 470 nM after 24 hrs by Hoechst 33342 staining; type: functional, cell-based
MDA-MB-231 [11] = assay: Antimigratory activity against human MDA-MB-231 cells at 0.5 to 5 uM after 22 hrs by scratch wound healing assay; type: functional, cell-based
HeLa [12] = assay: Cell cycle arrest in human HeLa cells assessed as disorganized microtubules at 62 nM after 24 hrs by Hoechst 33342 staining; type: functional, cell-based
HeLa [13] = assay: Cell cycle arrest in human HeLa cells assessed as disorganized microtubules at 940 nM after 24 hrs by Hoechst 33342 staining; type: functional, cell-based

## COc1cc(C(=O)/C=C/c2ccc(Br)cc2)cc(OC)c1OC
L1210
  IC50: > 100 µM

## COc1cc(C(=O)/C=C/c2ccc(C)o2)cc(OC)c1OC
L1210
  IC50: 46.5 µM

## O=C(/C=C/c1ccccc1)c1ccccc1 [CHALCONE]
Jurkat
  IC50: 17.1 µM
PBMC
  IC50: 27 µM
HeLa [1]
  minimal effective concentration: > 50 µM
[2]
  IC50: > 10 µM
HeLa [3]
  EC50: > 50 µM
L1210
  IC50: > 100 µM
HeLa [4]
  minimal effective concentration: > 50 µM
HeLa [5]
  Activity: > 50000 nM

## COc1cc(/C=C/C(=O)c2cc(OC)c(OC)c(OC)c2)ccc1O
L1210
  IC50: > 100 µM

## COc1cc(OC)c(/C=C/C(=O)c2cc(OC)c(OC)c(OC)c2)c(OC)c1
L1210
  IC50: 62.5 µM

## COc1cc(C(=O)/C=C/c2cc(Cl)cc(Cl)c2)cc(OC)c1OC
L1210
  IC50: 44 µM

## COc1cc(C(=O)/C=C/c2ccc(Cl)c(Cl)c2)cc(OC)c1OC
L1210
  IC50: 44 µM

## COc1cc(C(=O)/C=C/c2ccc(Cl)cc2Cl)cc(OC)c1OC
L1210
  IC50: 52.5 µM

## COc1cc(OC)c(OC)cc1/C=C/C(=O)c1cc(OC)c(OC)c(OC)c1
L1210
  IC50: 42.5 µM

## COc1cc(C(=O)/C=C/c2ccc(C)cc2)cc(OC)c1OC
L1210
  IC50: 50.5 µM

## COc1ccc(/C=C/C(=O)c2ccc3c(c2)OCO3)c(OC)c1OC
Jurkat
  IC50: 30 µM
REH
  IC50: 23.6 µM
PBMC
  IC50: 81.2 µM
HeLa [1]
  minimal effective concentration: > 50 µM
[2]
  IC50: > 10 µM
HeLa [3]
  EC50: > 50 µM
L1210
  IC50: 47.5 µM
HeLa [4]
  minimal effective concentration: > 50 µM
HeLa [5]
  Activity: > 50000 nM

## COc1cc(/C=C/C(=O)c2cc(OC)c(OC)c(OC)c2)cc(OC)c1OC
L1210
  IC50: > 100 µM

## COc1cc(C(=O)/C=C/c2ccc(Cl)cc2)cc(OC)c1OC
L1210
  IC50: 44.5 µM

## COc1cc(C(=O)/C=C/c2ccc(F)cc2)cc(OC)c1OC
L1210
  IC50: 46.5 µM

## COc1cc(C(=O)/C=C/c2ccc([N+](=O)[O-])cc2)cc(OC)c1OC
L1210
  IC50: > 100 µM

## COc1cc(C(=O)/C=C/c2c(Cl)cccc2Cl)cc(OC)c1OC
L1210
  IC50: 50.5 µM

## COc1cc(C(=O)/C=C/c2ccc(Cl)c(C(F)(F)F)c2)cc(OC)c1OC
L1210
  IC50: 47.5 µM

## COc1cc(C(=O)/C=C/c2ccc(N(C)C)cc2)cc(OC)c1OC (mixture of isomers)
HeLa [6]
  Activity: inactive
HUVEC
  IC50: > 100 µM
HeLa [7]
  Activity: Active
Jurkat
  IC50: 1.2 µM
NIH3T3
  IC50: 66 µM
REH
  IC50: 1.05 µM
PBMC
  IC50: 92.5 µM
[2]
  IC50: 2.8 µM
HeLa [3]
  EC50: 0.357 µM
MDA-MB-231 [8]
  IC50: 0.656 µM
L1210
  IC50: 30 µM
MDA-MB-231 [9]
  Activity: 54%
HeLa [10]
  Activity: Active
MDA-MB-231 [11]
  Activity: Active
HeLa [5]
  Activity: 200 nM

## CCCCOc1ccc(/C=C/C(=O)c2cc(OC)c(OC)c(OC)c2)cc1
L1210
  IC50: > 100 µM

## COc1cc(C(=O)/C=C/c2ccc3ccccc3c2)ccc1O
Jurkat
  IC50: 5.9 µM
REH
  IC50: 2.58 µM
PBMC
  IC50: 35.6 µM
HeLa [1]
  minimal effective concentration: 2.2 µM
[2]
  IC50: 3.6 µM
HeLa [3]
  EC50: 3.3 µM
L1210
  IC50: 54 µM
HeLa [4]
  minimal effective concentration: 1.1 µM
HeLa [5]
  Activity: 1400 nM

## COc1cc2c(c(OC)c1OC)-c1ccc(OC)c(=O)cc1[C@@H](NC(C)=O)CC2 [COLCHICINE]
HeLa [6]
  Activity: inactive
HeLa [7]
  Activity: Active
HeLa [12]
  Activity: Active
MDA-MB-231 [9]
  Activity: 74%
MDA-MB-231 [11]
  Activity: Active

## COc1cc(C(=O)/C=C/c2cccc([N+](=O)[O-])c2)cc(OC)c1OC
L1210
  IC50: > 56 µM

## COc1ccc(/C=C/C(=O)c2cc(OC)c(OC)c(OC)c2)cc1
L1210
  IC50: 48 µM

## COc1cc(C(=O)/C=C/c2ccc3ccccc3c2)cc(OC)c1OC
HeLa [6]
  Activity: inactive
HUVEC
  IC50: 37 µM
HeLa [7]
  Activity: Active
Jurkat
  IC50: 0.5 µM
NIH3T3
  IC50: 34 µM
REH
  IC50: 0.73 µM
PBMC
  IC50: 18 µM
[2]
  IC50: 2.2 µM
HeLa [3]
  EC50: 0.684 µM
MDA-MB-231 [8]
  IC50: 1.09 µM
L1210
  IC50: 26 µM
HeLa [13]
  Activity: Active
MDA-MB-231 [9]
  Activity: 46%
MDA-MB-231 [11]
  Activity: Active
HeLa [5]
  Activity: 397 nM
